The source of these data is patent EP0497852B1, “BICYCLO-IMIDAZOLES, PROCESS FOR PRODUCING THEM AND DRUGS CONTAINING THEM” (BOEHRINGER MANNHEIM GMBH, priority 1989, dated 1991).

The assay relates to Erythrozyten-Aggregation. The experiment in a line: Erythrocyte aggregation in human blood, Mini-Erythrozyten-Aggregometer (Myrenne). Type of assay: cell-based, Humanblut gesunder Spender. The settings on record: 10⁻⁵ M, haematocrit 45 %, difference between control baseline and substance solution, two experiments, different donors, index dimensionless. From the text:
Die Bestimmung der Erythrozyten-Aggregation als Parameter für die Hämorheologie erfolgte mit dem Mini-Erythrozyten-Aggregometer der Fa. Myrenne, Roetgen¹). Als Maß gibt dieses Gerät einen dimensionslosen Index an, der mit steigender Aggregationstendenz zunimmt.
Die Untersuchungen wurden mit dem Humanblut gesunder Spender durchgeführt. Das auf einen Haematokrit von 45 % eingestellte Blut wurde mit der Kontrollösung oder den Substanzlösungen inkubiert. Anschließend wurde die Erythrozyten-Aggregation gemessen. Jede Substanz wurde bei einer Konzentration von 10⁻⁵ M untersucht. Pro Substanz wurden zwei Versuche mit dem Blut verschiedener Spender durchgeführt. Es wurde die Differenz der Aggregationsindices zwischen dem Ausgangswert der Kontrollösung und den Werten der Substanzlösung errechnet. Diese Werte sind in der folgenden Tabelle aufgelistet.
Take `CC1(C)CC(=O)Nc2ccc(-c3c[nH]c(-c4ccccc4)n3)cc21` [Beispiel 14, 3,4-Dihydro-4,4-dimethyl-6-[2-phenyl-4(1H)-imidazolyl]-2(1H)-chinolinon]: the “Differenz der Erythrozytenaggregationsindices (E₂-E₁)” value was -7.2.

Consider `CCN1C(=O)C(C)(C)c2cc(-c3c[nH]c(-c4ccc(F)cc4)n3)ccc21` [Beispiel 5, 1,3-Dihydro-3,3-dimethyl-1-ethyl-5-[2-(4-fluorphenyl)-4(1H)-imidazolyl]-(2H)-indol-2-on], for which the “Differenz der Erythrozytenaggregationsindices (E₂-E₁)” value is given as -8.7. Regarding `CN1C(=O)C(C)(C)c2cc(-c3c[nH]c(-c4ccccc4)n3)ccc21` [Beispiel 17, 1,3-Dihydro-1,3,3-trimethyl-5-[2-phenyl-4(1H)-imidazolyl]-(2H)-indol-2-on], the “Differenz der Erythrozytenaggregationsindices (E₂-E₁)” value was -8.6. `CC1(C)C(=O)Nc2ccc(-c3c[nH]c(-c4ccc(Cl)cc4)n3)cc21` [Beispiel 6, 1,3-Dihydro-3,3-dimethyl-5-[2-(4-chlorphenyl)-4(1H)-imidazolyl]-(2H)-indol-2-on]: the “Differenz der Erythrozytenaggregationsindices (E₂-E₁)” value is reported as -8.2.
